# From patent EP4342530A1, “SORTILIN MODULATORS” (Insusense ApS, priority 2022, dated 2024)
# Like-named read-outs stand apart in the source and are kept apart here.
# Legend:
# [1] = Blood-brain-barrier permeability in mice after IV administration; details: male, CD1 (ICR), mouse, intravenous, 3 mg/kg
# [2] = Kpuu determination in the dog (plasma and CSF time course after oral capsule); format: in vivo, male beagle dog
# Experimental: Example 3 was loaded as a solid, Batch No. C2210502, into enteric coated capsule (0#). Fasted male beagle dog was dosed with pentagastrin (0.25 mg/mL and 0.024 mL/kg) at 6 µg/kg by intramuscular (IM) injection at approximately 30 minutes prior to administration of test compound. Capsule containing 20 mg/kg of Example 3 were administered orally and plasma and CSF samples were taken pre-dose, 0.5, 1, 2, 4, 8 12 and 24 hours post dosing and analysed for concentration of Example 3 in analogous fashion to the study above.
# Kpuu = AUC0−infcsf/(AUC0−infplasma×(%Fuplasma/100)) [formula] Kpuu = 6414/(23816×(55,5/100)) = 6414/13218 = 0.49 [formula]
# [3] = Plasma protein binding by rapid equilibrium dialysis, dog plasma; format: in vitro ADME
# Experimental: Plasma protein binding and brain homogenate binding for study compounds in mouse, dog, and rat by rapid equilibrium dialysis
# In practice, unbound fractions in plasma and brain tissue were assessed using rapid equilibrium dialysis in vitro. Separately a pharmacokinetic study was run in vivo whereby a dose of the compound of interest was given at T=0 hours and at subsequent timepoints (eg 0.5, 1 and 4 hours) plasma and separately brain samples were analysed for total concentration of the compound of interest. These total concentrations could then be adjusted with the unbound fraction to give the unbound concentrations in the plasma and brain.
# The test compounds were incubated in plasma and brain homogenate from the relevant species at 37 °C in RED device with inserts (8K MWCO, Thermo scientific) for 4 hours at 5 µM in triplicates. 350 µL of 150 mM phosphate buffered saline (PBS, pH 7.4) was used as the receiver side solutions. […] After 10-minute centrifugation at 13 200 rpm, the sample supernatants were analysed with an LC-MS/MS, to obtain the unbound fraction of the test compound (Fub). The unbound fraction was calculated from the peak area ratios obtained for each matrix: Fub = CPBS /Cplasma; [formula] where CPBS and Cplasma are the analyte concentrations in PBS (receiver) and plasma (donor), respectively. […]
# [4] = male, beagle, CSF, 20 mg/kg oral capsule, read-out: CSF concentration
# [5] = male, beagle, plasma, 20 mg/kg oral capsule, read-out: Plasma concentration
structure (smiles),measurement,setting,value
"CC(C)(C)CC[C@H](NCc1ccc2c(c1)COCC2)C(=O)O [Example 3, (S)-2-((isochroman-7-ylmethyl)amino)-5,5-dimethylhexanoic acid]",concentration at 0.5 h,[1]; brain,61.2 ng/g
same,Kp at 0.5 h,[1]; brain/plasma,0.21
same,concentration at 0.5 h,[1]; plasma,292 ng/mL
same,CSF concentration,"[2]; 20 mg/kg oral capsule, 0,5 h",BQL
same,Plasma concentration,"[2]; 20 mg/kg oral capsule, 0,5 h","1,04 ng/mL"
same,CSF concentration,"[2]; 20 mg/kg oral capsule, 1 h",BQL
same,Plasma concentration,"[2]; 20 mg/kg oral capsule, 1 h","3,20 ng/mL"
same,CSF concentration,"[2]; 20 mg/kg oral capsule, 2 h","13,7 ng/mL"
same,CSF concentration,"[2]; 20 mg/kg oral capsule, 24 h","27,7 ng/mL"
same,Plasma concentration,"[2]; 20 mg/kg oral capsule, 24 h","87,1 ng/mL"
same,AUC(0-inf),"[2]; male, beagle, CSF, 20 mg/kg oral capsule",6410 ng·h/mL
same,concentration at 4 h,[2]; [4],745 ng/mL
same,concentration at 8 h,[2]; [4],698 ng/mL
same,concentration at 12 h,[2]; [4],196 ng/mL
same,AUC(0-inf),"[2]; male, beagle, Plasma, 20 mg/kg oral capsule",23800 ng·h/mL
same,concentration at 2 h,"[2]; male, beagle, plasma, 20 mg/kg oral capsule, 2 h",370 ng/mL
same,concentration at 4 h,[2]; [5],5350 ng/mL
same,concentration at 8 h,[2]; [5],1400 ng/mL
same,concentration at 12 h,[2]; [5],390 ng/mL
same,%Fuplasma,"[3]; dog plasma, as used for the Kpuu calculation",55%
same,"fraction unbound at 4 h, 5 µM","[3]; pH 7.4, Dog plasma, 5 µM, 4 hours, 37 °C, read-out: Unbound (Fu, %)",0.555
